Data taken from patent US20170258786A1, “RBP4 ANTAGONISTS FOR THE TREATMENT OF AGE-RELATED MACULAR DEGENERATION AND STARGARDT DISEASE” (The Trustees of Columbia University in the City of New York, priority 2013, published 2017).

What was measured:
[1] = Signs of toxicity during 6 week chronic dosing of Abca4-/- mice; format: in vivo; details: 6 week-long chronic dosing, 30 mg/kg
Procedure: (§1) Ten week-old Abca4 null mutant mice (129/SV×C57BL/6J) bred as previously described were used in the study. Abca4−/− (knockout) and Abca4+/+ (wild-type) mice were raised under 12 h on-off cyclic lighting with an in-cage illuminance of 30-50 lux. For long-term oral dosing A1120 was formulated into Purina 5035 rodent chow at Research Diets, Inc. (New Brunswick, N.J.) to ensure consistent 30 mg/kg daily oral dosing. Animals were administered the A1120-containing chow for 6 weeks.
Administration of A1120 reduces the production of A2E, A2-DHP-PE, and atRAL di-PE in A1120-treated Abca4−/− mice in comparison to the vehicle-treated Abca4−/− animals by approximately 50%.

[2] = test system: lipofuscin bisretinoids (A2E, A2-DHP-PE, atRAL di-PE); test: Lipofuscin bisretinoid levels in eyecups of Abca4-/- mice by HPLC; format: in vivo, mouse; details: Example 3, treated mice, 30 mg/kg oral
Text: The Abca4−/− mouse model manifests accelerated accumulation of lipofuscin in the RPE and is considered a pre-clinical efficacy model for a drug reducing lipofuscin accumulation. […] There was approximately a 70% reduction in the serum RBP4 level in treated animals (FIG. 11). Additionally, it was discovered that that the levels of A2E/isoA2E and other bisretinoids were reduced by approximately 50% in treated mice (FIG. 12).
Abca4/Abcr null mutant mice (albino) homozygous for Rpe65-Leu450 are bred genotyped and housed. […] An Alliance system (Waters, Corp, Milford, Mass.) equipped with 2695 Separation Module, 2996 Photodiode Array Detector, a 2475 Multi λ Fluorescence Detector and operating with Empower® software is used for HPLC analysis. […] HPLC quantification is carried out using the Empower® software to determine peak areas. […] Molar quantity per murine eye is determined using calibration curves constructed from known concentrations of purified external standards and by normalizing to the ratio of the HPLC injection volume (10 μL) versus total extract volume. […]
Following euthanasia, posterior eye cups were pooled and homogenized in PBS using a tissue grinder. […] Levels of bisretinoid were determined by reference to external standards of HPLC-purified compound.

serum RBP4 = target: T1, serum RBP4 (Mus musculus, UniProt Q00724); test: Serum RBP4 measured by ELISA in Abca4-/- mice; format: in vivo
T1 construct: There was approximately a 70% reduction in the serum RBP4 level in treated animals; from tissue; host or cells: mouse serum (Abca4-/- and wild-type, 129/SV x C57BL/6J)
Procedure: The Abca4−/− mouse model manifests accelerated accumulation of lipofuscin in the RPE and is considered a pre-clinical efficacy model for a drug reducing lipofuscin accumulation.
as §1
Blood samples were collected from a tail vein at days 0, 21 and 42 of the A1120 dosing. Whole blood was drawn into a centrifuge tube and was let clot at room temperature for 30 min followed by centrifugation at 2,000×g for 15 minutes at +4′C to collect serum. Serum RBP4 was measured using the RBP4 (mouse/rat) dual ELISA kit (Enzo Life Sciences) following the manufacturer's instructions.

RBP4-TTR interaction = target: T2, RBP4-TTR interaction (Homo sapiens, UniProt P02753); test: TR-FRET/HTRF assay for antagonists of retinol-induced RBP4-TTR interaction (Example 2, agonist and antagonist mode); format: biochemical; details: agonist mode, dose titration without retinol
T2 construct: host or cells: E. coli
Text: TR-FRET (Time-Resolved Fluorescence Resonance Energy Transfer) is an assay format that can be used in characterization of compounds affecting protein-protein interactions (31-33). […] In the presence of retinol, RBP4-TTR interaction induces FRET that can be registered as increased ratio of […] fluorescence signals. Binding of a desired RBP4 antagonist displaces retinol and induces hindrance for RBP4-TTR interaction resulting in the decreased FRET signal (FIG. 7).
The assay was developed using E. coli-expressed MBP-tagged RBP4 and commercially available TTR labeled directly with Eu3+ cryptate. In addition to MBP-RBP4 and Eu3+ (K)-TTR, a detector reagent anti-MBP-d2 was present in the mix. The assay was first optimized in the agonist mode; sensitivity and dynamic range of the assay was […] in respect to RBP4, TTR and detection reagent concentrations.

insulin sensitivity = details: reference 12; cited from earlier work
ERG b-wave = ERG b-wave after photobleaching; details: in vivo
A2E production = details: animal model of excessive bisretinoid accumulation, reference 11; cited from earlier work
[3] = Abca4-/- mice, 30 mg/kg daily oral in chow

SMILES	Signs of compound toxicity such as weight loss or reduction in food consumption [1]	Levels of A2-DHP-PE and atRAL di-PE [2]	Reduction of levels of A2E/isoA2E and other bisretinoids [2]	Serum RBP4 reduction at Week 3 (Day 21) compared with Day 0 (serum RBP4; [3]) [%]	Serum RBP4 reduction at Week 6 (Day 42) compared with Day 0 (serum RBP4; [3]) [%]	Reduction in serum RBP4 level (serum RBP4; orally dosed for 3 weeks at 30 mg/kg, treated animals) [%]	Induction of RBP4-TTR interaction (RBP4-TTR interaction)	Insulin sensitivity in mouse diabetes models (insulin sensitivity)	Effect on ERG b-wave after photobleaching (ERG b-wave)	A2E production in Abca4-/- mice (A2E production)
O=C(O)c1ccccc1NC(=O)N1CCC(c2ccccc2C(F)(F)F)CC1 [Compound 1, 2(4-(2-(trifluoromethyl)phenyl)piperidine-1-carboxamido)benzoic acid]	did not note any obvious signs of compound toxicity	reduced	approximately 50%	64	75	~70	did not induce RBP4-TTR interaction	did not improve insulin sensitivity	does not reduce ERG b-wave	–
CC1=C(/C=C/C(C)=C/C=C/C(C)=C/C(=O)Nc2ccc(O)cc2)C(C)(C)CCC1 [fenretinide, N-(4-hydroxy-phenyl)retinamide]	–	–	–	–	–	–	did not induce RBP4-TTR interaction	–	–	reduced A2E production
